According to US12202790B2, “Sulfonamide derivatives having selective Nox inhibiting activity” (GLUCOX BIOTECH AB, priority 2018, dated 2025):

Test system: Sprague-Dawley rats
Test: Streptozotocin rat model of diabetic retinopathy
Type: in vivo
Conditions: 10 mg/ml eye drops for two weeks, STZ diabetic rats
Experimental: Animals were maintained on a 12 h light-dark cycle, at 22-25° C. Food and water were available ad libitum. Diabetes was induced by a single dose of streptozotocin (STZ, 70 mg/kg, ip, Sigma-Aldrich, Germany) dissolved in sodium citrate (0.1M) buffer (diabetic group) after a fasting period of 8-12 hours. Animals with blood glucose levels>350 mg/d1, after 72 hours post-STZ injection were considered diabetic. Both male and female Sprague-Dawley rats were used in the study. Three experimental groups were employed, namely Control (n=6), Diabetic (n=7), and Diabetic-treated group (n=6). Example 17 (10 mg/ml) dissolved in DMSO was administered as eye drops, for two weeks, starting two (2) days after STZ administration. Animals were euthanized 24 hours after the last treatment, and their eyes were removed. […]
Antibodies raised against the macroglia marker glial fibrillary acidic protein (GFAP) were employed. Quantification using the public domain ImageJ 1.43m software was employed for the mean gray value [integrated density (fluorescence density)/delineated area] calculated and expressed as a percentage of the mean gray value of the control. Statistical analysis of the data was performed using GraphPad Prism v5.0 (San Diego, Calif., USA) and differences between groups were evaluated by one-way analysis of variance (ANOVA) with Neuman-Keuls. […]

SMILES: Cc1ccccc1CCNS(=O)(=O)c1c(Cl)cc(Br)cc1Cl [Example 17, 4-bromo-2,6-dichloro-N-[2-(2-methylphenyl)ethyl]benzene-1-sulfonamide]
- GFAP immunoreactivity in retina: attenuated the diabetes induced increase in GFAP immunoreactivity
